In PubChem BioAssay (NCI):
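Here, GI50 denotes the concentration required for 50% inhibition of growth. TGI denotes the concentration required for complete inhibition of growth.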

How the values were obtained:
Experiment in all cases: NCI tumour cell line growth inhibition, 384-well format
A498 renal = test system: A498 renal
A549 NSCLC = test system: A549 NSCLC
ACHN renal = test system: ACHN renal
BT-549 breast = test system: BT-549 breast
CAKI-1 renal = test system: CAKI-1 renal
COLO 205 colon = test system: COLO 205 colon
DU-145 prostate = test system: DU-145 prostate
EKVX NSCLC = test system: EKVX NSCLC
HCC-2998 colon = test system: HCC-2998 colon
HCT-116 colon = test system: HCT-116 colon
HCT-15 colon = test system: HCT-15 colon
HL-60(TB) leukemia = test system: HL-60(TB) leukemia
HOP-62 NSCLC = test system: HOP-62 NSCLC
HOP-92 NSCLC = test system: HOP-92 NSCLC
HS 578T breast = test system: HS 578T breast
HT29 colon = test system: HT29 colon
IGROV1 ovarian = test system: IGROV1 ovarian
KM12 colon = test system: KM12 colon
LOX IMVI melanoma = test system: LOX IMVI melanoma
M14 melanoma = test system: M14 melanoma
MALME-3M melanoma = test system: MALME-3M melanoma
MCF7 breast = test system: MCF7 breast
MDA-MB-231 breast = test system: MDA-MB-231 breast
MDA-MB-435 melanoma = test system: MDA-MB-435 melanoma
MDA-MB-468 breast = test system: MDA-MB-468 breast
MOLT-4 leukemia = test system: MOLT-4 leukemia
NCI-H226 lung = test system: NCI-H226 lung
NCI-H23 lung = test system: NCI-H23 lung
NCI-H322M lung = test system: NCI-H322M lung
NCI-H460 NSCLC = test system: NCI-H460 NSCLC
NCI-H522 lung = test system: NCI-H522 lung
NCI/ADR-RES ovarian = test system: NCI/ADR-RES ovarian
OVCAR-3 ovarian = test system: OVCAR-3 ovarian
OVCAR-4 ovarian = test system: OVCAR-4 ovarian
OVCAR-5 ovarian = test system: OVCAR-5 ovarian
OVCAR-8 ovarian = test system: OVCAR-8 ovarian
PC-3 prostate = test system: PC-3 prostate
RPMI-8226 leukemia = test system: RPMI-8226 leukemia
RXF 393 renal = test system: RXF 393 renal
SF-268 CNS = test system: SF-268 CNS
SF-295 CNS = test system: SF-295 CNS
SF-539 CNS = test system: SF-539 CNS
SK-MEL-28 melanoma = test system: SK-MEL-28 melanoma
SK-MEL-5 melanoma = test system: SK-MEL-5 melanoma
SK-OV-3 ovarian = test system: SK-OV-3 ovarian
SN12C renal = test system: SN12C renal
SNB-19 CNS = test system: SNB-19 CNS
SNB-75 CNS = test system: SNB-75 CNS
SR leukemia = test system: SR leukemia
T-47D breast = test system: T-47D breast
TK-10 renal = test system: TK-10 renal
U251 glioblastoma = test system: U251 glioblastoma
UACC-257 melanoma = test system: UACC-257 melanoma
UACC-62 melanoma = test system: UACC-62 melanoma

CCc1c[nH]c2ncnc(N3CC[C@@](N)(CNC(=O)c4ccc(F)cc4F)C3)c12
GI50 (A498 renal): 2.72 µM | TGI (A498 renal): 19.3 µM | GI50 (A549 NSCLC): 20.8 µM | TGI (A549 NSCLC): 50.7 µM | GI50 (ACHN renal): 15.5 µM | TGI (ACHN renal): 50 µM | GI50 (BT-549 breast): 10.9 µM | TGI (BT-549 breast): 24.9 µM | GI50 (CAKI-1 renal): 16.5 µM | TGI (CAKI-1 renal): > 100 µM | GI50 (COLO 205 colon): 15.8 µM | TGI (COLO 205 colon): 41.5 µM | GI50 (DU-145 prostate): 23.2 µM | TGI (DU-145 prostate): 94.1 µM | GI50 (EKVX NSCLC): 28.6 µM | TGI (EKVX NSCLC): > 100 µM | GI50 (HCC-2998 colon): 18.8 µM | TGI (HCC-2998 colon): > 100 µM | GI50 (HCT-116 colon): 20.5 µM | TGI (HCT-116 colon): > 100 µM | GI50 (HCT-15 colon): 32 µM | TGI (HCT-15 colon): > 100 µM | GI50 (HL-60(TB) leukemia): 15.7 µM | TGI (HL-60(TB) leukemia): 29.4 µM | GI50 (HOP-62 NSCLC): 20 µM | TGI (HOP-62 NSCLC): 93 µM | GI50 (HOP-92 NSCLC): 28.6 µM | TGI (HOP-92 NSCLC): > 100 µM | GI50 (HS 578T breast): 14.9 µM | TGI (HS 578T breast): 33.7 µM | GI50 (HT29 colon): 29.1 µM | TGI (HT29 colon): > 100 µM | GI50 (IGROV1 ovarian): 6.09 µM | TGI (IGROV1 ovarian): 32.4 µM | GI50 (KM12 colon): 4.05 µM | TGI (KM12 colon): > 100 µM | GI50 (LOX IMVI melanoma): 18.9 µM | TGI (LOX IMVI melanoma): 47.3 µM | GI50 (M14 melanoma): 28.4 µM | TGI (M14 melanoma): > 100 µM | GI50 (MALME-3M melanoma): 14.2 µM | TGI (MALME-3M melanoma): 37.5 µM | GI50 (MCF7 breast): 12.7 µM | TGI (MCF7 breast): > 100 µM | GI50 (MDA-MB-231 breast): 35.6 µM | TGI (MDA-MB-231 breast): > 100 µM | GI50 (MDA-MB-435 melanoma): 31.4 µM | TGI (MDA-MB-435 melanoma): > 100 µM | GI50 (MDA-MB-468 breast): 13.9 µM | TGI (MDA-MB-468 breast): 55.5 µM | GI50 (MOLT-4 leukemia): 5.23 µM | TGI (MOLT-4 leukemia): 20.3 µM | GI50 (NCI-H226 lung): 20.2 µM | TGI (NCI-H226 lung): > 100 µM | GI50 (NCI-H23 lung): 14.5 µM | TGI (NCI-H23 lung): 39.9 µM | GI50 (NCI-H322M lung): 22 µM | TGI (NCI-H322M lung): 79.4 µM | GI50 (NCI-H460 NSCLC): 11.3 µM | TGI (NCI-H460 NSCLC): > 100 µM | GI50 (NCI-H522 lung): 16.8 µM | TGI (NCI-H522 lung): 47.4 µM | GI50 (NCI/ADR-RES ovarian): 89 µM | TGI (NCI/ADR-RES ovarian): > 100 µM | GI50 (OVCAR-3 ovarian): 33.8 µM | TGI (OVCAR-3 ovarian): > 100 µM | GI50 (OVCAR-4 ovarian): > 100 µM | TGI (OVCAR-4 ovarian): > 100 µM | GI50 (OVCAR-5 ovarian): 17.1 µM | TGI (OVCAR-5 ovarian): 76 µM | GI50 (OVCAR-8 ovarian): 41.3 µM | TGI (OVCAR-8 ovarian): > 100 µM | GI50 (PC-3 prostate): 22.1 µM | TGI (PC-3 prostate): > 100 µM | GI50 (RPMI-8226 leukemia): 14.2 µM | TGI (RPMI-8226 leukemia): 54.7 µM | GI50 (RXF 393 renal): 27.8 µM | TGI (RXF 393 renal): > 100 µM | GI50 (SF-268 CNS): 48.3 µM | TGI (SF-268 CNS): > 100 µM | GI50 (SF-295 CNS): 29.1 µM | TGI (SF-295 CNS): > 100 µM | GI50 (SF-539 CNS): 11.9 µM | TGI (SF-539 CNS): > 100 µM | GI50 (SK-MEL-28 melanoma): 25.5 µM | TGI (SK-MEL-28 melanoma): > 100 µM | GI50 (SK-MEL-5 melanoma): 11 µM | TGI (SK-MEL-5 melanoma): 28.4 µM | GI50 (SK-OV-3 ovarian): 13.6 µM | TGI (SK-OV-3 ovarian): > 100 µM | GI50 (SN12C renal): 23.3 µM | TGI (SN12C renal): 88.5 µM | GI50 (SNB-19 CNS): 61.9 µM | TGI (SNB-19 CNS): > 100 µM | GI50 (SNB-75 CNS): 31.3 µM | TGI (SNB-75 CNS): > 100 µM | TGI (SR leukemia): 0.816 µM | GI50 (T-47D breast): 35.3 µM | TGI (T-47D breast): > 100 µM | GI50 (TK-10 renal): 13.5 µM | TGI (TK-10 renal): 42.8 µM | GI50 (U251 glioblastoma): 37.4 µM | TGI (U251 glioblastoma): > 100 µM | GI50 (UACC-257 melanoma): 16.5 µM | TGI (UACC-257 melanoma): 37 µM | GI50 (UACC-62 melanoma): 18.9 µM | TGI (UACC-62 melanoma): 59.2 µM
